Test system: healthy donor PBMC (CD8+ T cells)
Type: cell-based, human
Conditions: of one 48 well plate; two rounds of stimulation with peptide-pulsed autologous DCs; HLA-matched healthy donor

Sequence | wells showing clear peptide tetramer positive CD8+ T cell population
KLFAAETLK [NSP13-134] | 11 wells
TLVPQEHYV [NSP13-242] | 48 wells
VYIGDPAQL (listed as Homo Sapiens) [NSP13-400, NSP13 derived HLA-A2402 peptide] | 9 wells
